According to PubChem BioAssay (NCI):
Where “and” joins values, the source holds several entries; their conditions need not be identical. Equal entries are not always repeated.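 Each compound was tested at five concentrations against cells in 96-well plates for 48 hours. GI50 is the concentration that inhibits growth by half. TGI denotes the concentration required for complete inhibition of growth.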

tested on: OVCAR-3 ovarian; experiment: DTP human tumour cell line panel, 48 h

Structure (SMILES) | TGI | GI50
COC(=O)C(C(=O)c1ccccc1)C(C(=O)C(=O)Nc1ccc(OC)cc1OC)C(=O)C(=O)c1ccc(C)cc1 (stereo unspecified) | > 100 µM | 
O=C1CCC2(c3ccc(Cl)cc3)Nc3ncccc3N12 (stereo unspecified) | > 100 µM | 
COc1ccc(Sc2[nH]c(C(C)=O)c3ccccc23)cc1 | 24.6 µM | 12.2 µM
CC12C/C(=C\c3ccccc3)C(=O)C3C1CCCC32 | > 100 µM | 
OC(CC1SCCCS1)c1ccccc1 (stereo unspecified) | > 100 µM | 
CCCCOC(=O)CNC(=O)OC/C=C/C#CC#C/C=C/COC(=O)NCC(=O)OCCCC | > 100 µM | > 100 µM
COc1ccc(OC)c2c1[nH]c(=O)c1c3ccccc3cn21 | 3.31 µM | 1.64 µM
COc1cccc2c1C(=O)c1c(O)c3c(c(O)c1C2=O)C[C@@](O)(C(=O)CO)C[C@@H]3OC1CC(N)CC(C)O1 (stereo partly specified) | 1.11 µM and 1.22 µM | 0.102 µM
O=C1c2ccccc2C(=O)N1CCn1ccc(NC(c2ccccc2)(c2ccccc2)c2ccccc2)nc1=O | 65.8 µM | 
CC(C)(C)NNC(=O)CCn1[nH]c(=O)c(Cl)c(Cl)c1=O | > 100 µM | 
CN(C)CCNC(=O)c1cccc2ccc(-c3ccc(O)cc3)nc12 | 15.2 µM and 15.9 µM | 
COc1cc(Nc2ncccc2C(=O)NCc2cn(Cc3cccc(Oc4ccccc4)c3)nn2)cc(OC)c1 | > 100 µM | 3.69 µM
Nc1ccc([N+](=O)[O-])cc1N=C/C=C/c1ccccc1 | 26.8 µM | 4.95 µM
COc1cc(-c2oc(=O)ccc2C#Cc2ccccn2)cc(OC)c1OC | 2.76 µM | 0.733 µM
COc1cccc(C2CC(C)(O)Oc3cc4c(cc32)OCO4)c1O (stereo unspecified) | 42.2 µM | 
CCN(CC)CCCN1CCc2c([nH]c3ccccc23)C1c1cccnc1 (stereo unspecified) | > 100 µM | 
Cn1cc(C2=C(c3ccc(N)cc3)C(=O)NC2=O)c2ccccc21 | > 25 µM | 14.3 µM
Cc1cc(Cl)cc(OCCn2cc(F)cn2)c1-c1nc(N)nc2c1CN(C(=O)NCC(C)(F)F)C2 | > 100 µM | 0.54 µM
COc1ccc(/C=C\[N+](=O)[O-])cc1OC | 8.73 µM | 3 µM
CCN(CC)CCC(CNc1ccnc2cc(Cl)ccc12)c1ccc(Cl)cc1 (stereo unspecified) | 5.98 µM | 1.96 µM
COc1cccc(F)c1C(=O)c1cnc(NC2CCN(S(C)(=O)=O)CC2)nc1N | 19 µM | 4.6 µM
c1ccc2cc(-c3cc4ccccc4s3)ccc2c1 | > 100 µM | 
CCOC(=O)C(C#N)C1=CC(=O)C(=O)c2ccc(OC)cc21 (stereo unspecified) | 47.5 µM | 
COc1cc(OCc2cccc(-c3ccc(C(O)c4nccs4)cc3)c2C)cc(OC)c1C=O (stereo unspecified) | 4.36 µM | 1.62 µM
COC(=O)c1ccc2c(c1)nc(NC(=O)c1ccccc1)n2CCCc1ccccc1 | > 100 µM | 7.29 µM
Cc1ccc(S(=O)(=O)Nc2ccccc2C=O)cc1 | 60.1 µM | 
O=C(O)COc1ccc2c(=O)c3sc4c(=O)c5ccccc5c(=O)c4c3c(=O)c2c1 | 33.9 µM | 13.5 µM
Cc1ccc(S(=O)(=O)N(C=O)N=C2CCN(Cc3ccccc3)CC2)cc1 | > 100 µM | 
CC1(C)S[C@@H]2[C@H](NC(=O)C3(N)CCCCC3)C(=O)N2[C@H]1C(=O)O | > 100 µM | 
NC(=O)/C=C/C(=O)c1c(Cl)cccc1Cl | 1.72 µM | 0.533 µM

tested on: UACC-257 melanoma; experiment: DTP human tumour cell line panel, 48 h

Structure (SMILES) | TGI | GI50
COC(=O)C(C(=O)c1ccccc1)C(C(=O)C(=O)Nc1ccc(OC)cc1OC)C(=O)C(=O)c1ccc(C)cc1 (stereo unspecified) | > 100 µM | 
O=C1CCC2(c3ccc(Cl)cc3)Nc3ncccc3N12 (stereo unspecified) | > 100 µM | 
COc1ccc(Sc2[nH]c(C(C)=O)c3ccccc23)cc1 | 33.3 µM | 15.3 µM
CC12C/C(=C\c3ccccc3)C(=O)C3C1CCCC32 | > 100 µM | 
OC(CC1SCCCS1)c1ccccc1 (stereo unspecified) | > 100 µM | 
CCCCOC(=O)CNC(=O)OC/C=C/C#CC#C/C=C/COC(=O)NCC(=O)OCCCC | > 10 µM | 
COc1ccc(OC)c2c1[nH]c(=O)c1c3ccccc3cn21 | 3.73 µM | 2 µM
COc1cccc2c1C(=O)c1c(O)c3c(c(O)c1C2=O)C[C@@](O)(C(=O)CO)C[C@@H]3OC1CC(N)CC(C)O1 (stereo partly specified) | 0.33 µM and 0.195 µM | 0.103 µM
O=C1c2ccccc2C(=O)N1CCn1ccc(NC(c2ccccc2)(c2ccccc2)c2ccccc2)nc1=O | 34.7 µM | 
CC(C)(C)NNC(=O)CCn1[nH]c(=O)c(Cl)c(Cl)c1=O | > 100 µM | 
CN(C)CCNC(=O)c1cccc2ccc(-c3ccc(O)cc3)nc12 | 8.29 µM and 10.1 µM | 1.06 µM
COc1cc(Nc2ncccc2C(=O)NCc2cn(Cc3cccc(Oc4ccccc4)c3)nn2)cc(OC)c1 | > 100 µM | 4.86 µM
Nc1ccc([N+](=O)[O-])cc1N=C/C=C/c1ccccc1 | > 100 µM | 47.7 µM
COc1cc(-c2oc(=O)ccc2C#Cc2ccccn2)cc(OC)c1OC | > 61.8 µM | 4.12 µM
COc1cccc(C2CC(C)(O)Oc3cc4c(cc32)OCO4)c1O (stereo unspecified) | > 100 µM | 
CCN(CC)CCCN1CCc2c([nH]c3ccccc23)C1c1cccnc1 (stereo unspecified) | > 100 µM | 
Cn1cc(C2=C(c3ccc(N)cc3)C(=O)NC2=O)c2ccccc21 | > 25 µM | > 25 µM
Cc1cc(Cl)cc(OCCn2cc(F)cn2)c1-c1nc(N)nc2c1CN(C(=O)NCC(C)(F)F)C2 | > 100 µM | 0.142 µM
COc1ccc(/C=C\[N+](=O)[O-])cc1OC | 3.38 µM | 0.919 µM
CCN(CC)CCC(CNc1ccnc2cc(Cl)ccc12)c1ccc(Cl)cc1 (stereo unspecified) | 2.37 µM | 1.02 µM
COc1cccc(F)c1C(=O)c1cnc(NC2CCN(S(C)(=O)=O)CC2)nc1N | 15.3 µM | 3.97 µM
c1ccc2cc(-c3cc4ccccc4s3)ccc2c1 | > 100 µM | 
CCOC(=O)C(C#N)C1=CC(=O)C(=O)c2ccc(OC)cc21 (stereo unspecified) | 31.1 µM | 
COc1cc(OCc2cccc(-c3ccc(C(O)c4nccs4)cc3)c2C)cc(OC)c1C=O (stereo unspecified) | 5.11 µM | 0.842 µM
COC(=O)c1ccc2c(c1)nc(NC(=O)c1ccccc1)n2CCCc1ccccc1 | > 100 µM | 6.85 µM
Cc1ccc(S(=O)(=O)Nc2ccccc2C=O)cc1 | 45.7 µM | 
O=C(O)COc1ccc2c(=O)c3sc4c(=O)c5ccccc5c(=O)c4c3c(=O)c2c1 | 34.7 µM | 16.2 µM
Cc1ccc(S(=O)(=O)N(C=O)N=C2CCN(Cc3ccccc3)CC2)cc1 | > 100 µM | 
CC1(C)S[C@@H]2[C@H](NC(=O)C3(N)CCCCC3)C(=O)N2[C@H]1C(=O)O | > 100 µM | 
NC(=O)/C=C/C(=O)c1c(Cl)cccc1Cl | 2.68 µM | 1.38 µM

tested on: UO-31 renal; experiment: DTP human tumour cell line panel, 48 h

Structure (SMILES) | TGI | GI50
COC(=O)C(C(=O)c1ccccc1)C(C(=O)C(=O)Nc1ccc(OC)cc1OC)C(=O)C(=O)c1ccc(C)cc1 (stereo unspecified) | > 100 µM | 
O=C1CCC2(c3ccc(Cl)cc3)Nc3ncccc3N12 (stereo unspecified) | > 100 µM | 
COc1ccc(Sc2[nH]c(C(C)=O)c3ccccc23)cc1 | 23.4 µM | 5.84 µM
CC12C/C(=C\c3ccccc3)C(=O)C3C1CCCC32 | > 100 µM | 
OC(CC1SCCCS1)c1ccccc1 (stereo unspecified) | > 100 µM | 
CCCCOC(=O)CNC(=O)OC/C=C/C#CC#C/C=C/COC(=O)NCC(=O)OCCCC | > 100 µM | > 100 µM
COc1ccc(OC)c2c1[nH]c(=O)c1c3ccccc3cn21 | 2.38 µM | 1.11 µM
COc1cccc2c1C(=O)c1c(O)c3c(c(O)c1C2=O)C[C@@](O)(C(=O)CO)C[C@@H]3OC1CC(N)CC(C)O1 (stereo partly specified) | 0.771 µM and 1.61 µM | 0.192 µM and 0.362 µM
O=C1c2ccccc2C(=O)N1CCn1ccc(NC(c2ccccc2)(c2ccccc2)c2ccccc2)nc1=O | 52.8 µM | 
CC(C)(C)NNC(=O)CCn1[nH]c(=O)c(Cl)c(Cl)c1=O | > 100 µM | 
CN(C)CCNC(=O)c1cccc2ccc(-c3ccc(O)cc3)nc12 | 7.35 µM and 5.12 µM | 1.58 µM
COc1cc(Nc2ncccc2C(=O)NCc2cn(Cc3cccc(Oc4ccccc4)c3)nn2)cc(OC)c1 | > 100 µM | 5.25 µM
Nc1ccc([N+](=O)[O-])cc1N=C/C=C/c1ccccc1 | 71.4 µM | 4.31 µM
COc1cc(-c2oc(=O)ccc2C#Cc2ccccn2)cc(OC)c1OC | > 100 µM | 3.22 µM
COc1cccc(C2CC(C)(O)Oc3cc4c(cc32)OCO4)c1O (stereo unspecified) | 97.9 µM | 
CCN(CC)CCCN1CCc2c([nH]c3ccccc23)C1c1cccnc1 (stereo unspecified) | > 100 µM | 
